Assay results from PMC5582420, “Hirsutine, an Indole Alkaloid of Uncaria rhynchophylla, Inhibits Late Step in Dengue Virus Lifecycle” (Frontiers in Microbiology, 2017).

How the values were obtained:
[1] = system: influenza A virus (subtype H3N2); design: method as in Takayama et al., 1997; Tietze and Zhou, 1999; conditions: ref Takayama et al., 1997, Tietze and Zhou, 1999; cited from earlier work
[2] = system: DGL2 and DGL2-mut DENV-1 replicon; assay: Transient subgenomic reporter replicon assay (Gaussia luciferase); conditions: 10 μM, A549 cells
Procedure: A549 cells were cultured in a 24-well plate and transfected with DGL2 and DGL2-mut using X-tremeGENE HP DNA transfection reagent (Roche, Basel, Switzerland); 10 μM of hirsutine was added at baseline. The cell culture medium was collected and replaced with fresh medium containing 10 μM of hirsutine every 24 h. The Gaussia luciferase activity in the culture medium was measured using a microplate reader.
(A) Schematic representation of the replicon system, which uses DGL2 and DGL2-mut. DGL2-mut was inserted in non-replicative mutation into RNA-dependent RNA polymerase (RdRp). CMVp, cytomegalovirus promoter; Gluc, secretory Gaussia luciferase; IRES, internal ribosome entry site; GAA, mutation in the active center for RdRp; and Rib, ribozyme sequence. (B) Replicon plasmids DGL2 and DGL2-mut were transfected to A549 cells in the presence of 10 μM hirsutine. After 24 and 72 h, luciferase activity in the culture supernatant was analyzed. Each data point represents the mean ± standard deviation from triplicate experiments.

[3] = system: DENV-NS3 protein expression, DENV-1; assay: Western blot of DENV-NS3 protein in DENV-1-infected A549 cells; format: cell-based, Dengue virus; conditions: MOI 0.1 and 1.0, 18 hpi
Procedure: Western blotting was performed as described previously ([Hishiki et al., 2014]). Briefly, DENV-1-infected A549 cells were co-cultured with 10 μM hirsutine, 100 μM ribavirin, or 10 μM bromocriptine. Protein samples were separated by SDS-PAGE and transferred to polyvinylidene fluoride blotting membranes (GE Healthcare, Little Chalfont, United Kingdom). Anti-NS3 rabbit polyclonal antibodies (GTX124252; GeneTex, Irvine, CA, United States) and anti-glyceraldehyde-3-phosphate dehydrogenase (GAPDH) mouse monoclonal antibodies (MAB374; Millipore, Billerica, MA, United States) were used as primary antibodies.
A549 cells were infected with DENV-1 at a MOI of 0.1 and 1.0 in the presence of 10 μM hirsutine (Hi), 100 μM ribavirin (Ri), or 10 μM bromocriptine (Br). Cell lysate was collected 18 h post-infection, and DENV-NS3 (top) and GAPDH (bottom) protein expression levels were assessed by Western blot.

DENV-3 (09-59 strain) = assay: Virus titer by plaque assay in infected A549 cells, DENV-3; format: cell-based, Dengue virus; conditions: 10 μM, MOI 0.01, supernatant 72 hpi
Procedure: (§1) The viruses used in this study included DENV-1 (02-20 strain) ([Tajima et al., 2006]), DENV-2 (16681 strain), DENV-3 (09-59 strain), and DENV-4 (09-48 strain). The strains were cultured in Vero cells, and stored at -80°C. Dengue virus titer was determined by plaque assay as summarized below.
(§2) Baby hamster kidney-21 cells were cultured in a 12-well plate and infected with serial dilutions of virus suspension, then incubated at 37°C for 1 h. At 1 hpi, cells were incubated in EMEM containing 2% FBS and 1% methylcellulose. After 5 days of incubation, the cells were fixed with paraformaldehyde and stained with methylene blue. Virus titer was calculated as plaque-forming units (PFU)/mL. The half-maximal effective concentration (EC50) against each virus was calculated using the Reed and Muench method.
(§3) FIGURE 1 Hirsutine inhibits replication of dengue virus serotypes DENV-1–4. (A) Structural formula of hirsutine. (B) Hirsutine inhibits viral replication of all four serotypes. A549 cells were infected with DENV-1–4 at a multiplicity of infection (MOI) of 0.01 in the presence of 10 μM hirsutine. Cell culture supernatants were collected 72 hpi, and viral titers were determined by plaque assay. All data were normalized to their control (0 μM of hirsutine).

DENV-1 (02-20 strain) [4] = assay: Virus titer by plaque assay in infected A549 cells, DENV-1; format: cell-based, Dengue virus; conditions: 10 μM, MOI 0.01, supernatant 72 hpi
Procedure: as §1, §2, §3

MTT cytotoxicity assay = format: cell-based; conditions: human, compounds, A549 cells, 3-day incubation
Procedure: Human lung carcinoma cells (A549) and baby hamster kidney cells (BHK-21) were maintained in Eagle’s minimum essential medium (EMEM; Life Technologies, Carlsbad, CA, United States) supplemented with 10% fetal bovine serum (FBS; JR Scientific, Woodland, CA, United States), penicillin, and streptomycin sulfate (Nacalai Tesque, Kyoto, Japan) at 37°C with 5% CO2. Hybridoma-producing anti-E antibody (HB-112) was maintained in RPMI 1640 medium (Life Technologies, Carlsbad, CA, United States) supplemented with 10% FBS and antibiotics at 37°C with 5% CO2.
Cell viability was assessed by 3-(4,5-dimethylthiazol-2-yl)-2,5-diphenyltetrazolium bromide (MTT) assay. A549 cells were cultured in a 96-well plate with the selected compound (0–10 μM) or extract (0–100 μg/mL). After a 3-day incubation, 30 μL of 0.5% MTT solution was added to each well. After incubation for 3 h, the supernatant was replaced with 100 μL of methanol with 1% Triton X-100, and then vortexed to dissolve the formazan. Absorbance at 565 nm and reference at 655 nm were measured using a microplate reader (Berthold Technologies, Bad Wildbad, Germany). The half-maximal cytotoxicity concentration (CC50) was calculated using the Reed and Muench method ([Reed and Muench, 1938]).

DENV-2 (16681 strain) = assay: Virus titer by plaque assay in infected A549 cells, DENV-2; format: cell-based, Dengue virus; conditions: 10 μM, MOI 0.01, supernatant 72 hpi
Procedure: as §1, §2, §3

DENV-1 [5] = assay: Time-of-drug-addition assay; format: cell-based, Dengue virus; conditions: 10 μM added at 0, 2, 4, 6, 8, 12, 18 hpi; A549, MOI 1.0; titer at 24 hpi
Procedure: Next, the cells were rinsed twice with phosphate-buffered saline, and fresh medium was added. At 0, 2, 4, 6, 8, 12, and 18 hpi, hirsutine at a final concentration of 10 μM was added to the infected cells. At 24 hpi, the cell culture supernatant was collected, and viral titer was assessed by plaque assay.
(§4) FIGURE 2 Hirsutine inhibits the late stage of the dengue virus lifecycle. (A) Time-of-drug-addition assay. Hirsutine (10 μM) was added at 0, 2, 4, 6, 8, 12, and 18 h post-DENV-1 infection. After 24 h, virus titers in the culture supernatant were analyzed by plaque assay. (B) Time-of-drug-elimination assay. Hirsutine (10 μM) was treated for 0–2, 0–4, and 0–6 h post-DENV-1 infection. After 24 h, virus titers in the culture supernatant were analyzed by plaque assay. ^∗p < 0.05. […] DMSO, dimethyl sulfoxide; hpi, hours post-infection; and PFU, plaque-forming units.

DENV-1 (02-20 strain) [6] = assay: Plaque assay, EC50 against DENV-1 (fourth screening); format: cell-based, Dengue virus; conditions: compounds; for EC50: Dengue virus, DENV1, against DENV-1, plaque assay, Reed and Muench method; for SI: selectivity index from CC50 and EC50
DENV-4 (09-48 strain) = assay: Virus titer by plaque assay in infected A549 cells, DENV-4; format: cell-based, Dengue virus; conditions: 10 μM, MOI 0.01, supernatant 72 hpi
Procedure: as §1, §2, §3

DENV-1 [7] = assay: Time-of-drug-elimination assay; format: cell-based, Dengue virus; conditions: 10 μM, A549, MOI 1.0, titer at 24 hpi
Procedure: Next, the cells were rinsed with phosphate-buffered saline twice, and fresh medium containing 10 μM hirsutine was added. At 2, 4, and 6 hpi, the cells were rinsed with phosphate-buffered saline twice and fresh medium was added. At 24 hpi, the cell culture supernatant was collected, and viral titer was measured by plaque assay.
as §4

CC[C@H]1CN2CCc3c([nH]c4ccccc34)[C@H]2C[C@@H]1/C(=C\OC)C(=O)OC [Hirsutine]
EC50 more effective than ribavirin [1]: over 10 fold | Gaussia luciferase activity in culture supernatant ([2]; DGL2, 24 h and 72 h post-transfection): did not reduce luciferase activity levels | Gaussia luciferase activity in culture supernatant ([2]; non-replicate DGL2-mut, 24 h and 72 h post-transfection): did not reduce luciferase activity levels | NS3 protein expression levels ([3]; 10 μM): did not change | virus titer (DENV-3 (09-59 strain)): decreased | virus titer (DENV-1 (02-20 strain) [4]): decreased | CC50 at 3 day (MTT cytotoxicity assay): > 10000 nM | virus titer (DENV-2 (16681 strain)): decreased | virus titer in culture supernatant, time-of-drug-addition (DENV-1 [5]): reduced the virus titer significantly up to 12 hpi | EC50 (DENV-1 (02-20 strain) [6]): 1970 nM | SI (DENV-1 (02-20 strain) [6]): >5.3 | virus titer (DENV-4 (09-48 strain)): decreased | virus titer in culture supernatant, time-of-drug-elimination (DENV-1 [7]; 2-h treatment): did not decrease the virus titer | virus titer in culture supernatant, time-of-drug-elimination (DENV-1 [7]; 4-h treatment): did decrease

NC(=O)c1ncn([C@@H]2O[C@H](CO)[C@@H](O)[C@H]2O)n1 [ribavirin]
NS3 protein expression levels ([3]; 100 μM): decreased significantly

CC(C)C[C@H]1C(=O)N2CCC[C@H]2[C@]2(O)O[C@](NC(=O)[C@@H]3C=C4c5cccc6[nH]c(Br)c(c56)C[C@H]4N(C)C3)(C(C)C)C(=O)N12 [bromocriptine]
NS3 protein expression levels ([3]; 10 μM): decreased significantly

C[C@H]1CC[C@@]2(OC1)O[C@H]1C[C@H]3[C@@H]4CC[C@@H]5C[C@@H](O[C@@H]6O[C@H](CO)[C@H](O)[C@H](O)[C@H]6O[C@@H]6O[C@H](CO)[C@@H](O)[C@H](O)[C@H]6O)CC[C@]5(C)[C@H]4CC[C@]3(C)[C@H]1[C@@H]2C [Timosaponin-AIII]
CC50 at 3 day (MTT cytotoxicity assay): > 10000 nM | EC50 (DENV-1 (02-20 strain) [6]): 1700 nM | SI (DENV-1 (02-20 strain) [6]): >5.9
